# Measurements as given in the kinase profiling compilation of Christmann-Franck et al. (2016).
# Where “and” joins values, the source holds several entries; their conditions need not be identical. Equal entries are not always repeated.
# Target: CLK4 (human) (UniProt Q9HAZ1)
# Assay: radiometric filter-binding kinase assay, Kinase HotSpot
# Details: compound 0.5 µM; ATP 10 µM
row,Compound,residual activity
1,CCCNC(=O)Nc1ccc(Oc2ncnc3cc(OC)c(OC)cc23)cc1Cl,94.2%
2,Cc1cc2ncc(-c3ccccc3)nc2cc1C,96%
3,Nc1n[nH]c2nnc(-c3c(-c4ccccc4)nn4ccccc34)cc12,101%
4,O=c1cc(N2CCNCC2)oc2c(-c3ccccc3)cccc12,88.9%

# Target: TNK2 (human) (UniProt Q07912)
# Assay: as above
# Details: compound 0.5 µM; ATP 10 µM
# Chain of TNK2 (human) (Q07912 whole entry, looked up): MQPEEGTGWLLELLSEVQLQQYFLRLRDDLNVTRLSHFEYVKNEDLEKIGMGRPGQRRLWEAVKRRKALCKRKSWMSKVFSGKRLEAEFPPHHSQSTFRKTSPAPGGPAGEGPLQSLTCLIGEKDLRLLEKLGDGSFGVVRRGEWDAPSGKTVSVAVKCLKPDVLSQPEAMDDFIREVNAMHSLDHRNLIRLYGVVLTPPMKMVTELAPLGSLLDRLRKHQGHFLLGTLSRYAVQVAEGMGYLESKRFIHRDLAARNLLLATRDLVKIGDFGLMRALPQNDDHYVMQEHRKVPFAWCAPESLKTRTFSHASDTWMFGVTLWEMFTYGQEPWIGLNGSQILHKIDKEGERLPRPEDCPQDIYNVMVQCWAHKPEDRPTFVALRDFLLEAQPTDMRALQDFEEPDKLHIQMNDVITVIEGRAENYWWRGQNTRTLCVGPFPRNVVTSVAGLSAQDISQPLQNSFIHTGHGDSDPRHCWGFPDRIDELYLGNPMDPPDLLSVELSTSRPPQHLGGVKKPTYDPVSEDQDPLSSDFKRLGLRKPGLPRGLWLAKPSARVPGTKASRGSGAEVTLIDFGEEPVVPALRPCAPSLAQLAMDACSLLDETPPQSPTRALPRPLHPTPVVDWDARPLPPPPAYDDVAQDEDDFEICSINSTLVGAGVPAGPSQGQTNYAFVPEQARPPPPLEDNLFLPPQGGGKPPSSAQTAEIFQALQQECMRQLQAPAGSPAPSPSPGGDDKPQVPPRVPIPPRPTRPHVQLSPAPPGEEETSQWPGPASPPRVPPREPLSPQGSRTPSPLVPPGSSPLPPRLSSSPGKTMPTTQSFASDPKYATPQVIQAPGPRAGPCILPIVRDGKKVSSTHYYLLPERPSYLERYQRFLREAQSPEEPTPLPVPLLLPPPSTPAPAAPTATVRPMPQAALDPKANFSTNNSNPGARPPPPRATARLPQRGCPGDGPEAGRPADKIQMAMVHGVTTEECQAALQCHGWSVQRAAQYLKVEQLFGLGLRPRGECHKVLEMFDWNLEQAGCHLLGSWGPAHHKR
row,Compound,residual activity
1,CCCNC(=O)Nc1ccc(Oc2ncnc3cc(OC)c(OC)cc23)cc1Cl,96.5%
2,Cc1cc2ncc(-c3ccccc3)nc2cc1C,98.4%
3,Nc1n[nH]c2nnc(-c3c(-c4ccccc4)nn4ccccc34)cc12,82.7%
4,O=c1cc(N2CCNCC2)oc2c(-c3ccccc3)cccc12,90.7%

# Target: NEK2 (human) (UniProt P51955)
# Assay: as above
# Details: compound 0.5 µM; ATP 10 µM
row,Compound,residual activity
1,CCCNC(=O)Nc1ccc(Oc2ncnc3cc(OC)c(OC)cc23)cc1Cl,92.3%
2,Cc1cc2ncc(-c3ccccc3)nc2cc1C,75.7%
3,Nc1n[nH]c2nnc(-c3c(-c4ccccc4)nn4ccccc34)cc12,95.3%
4,O=c1cc(N2CCNCC2)oc2c(-c3ccccc3)cccc12,86%

# Target: NEK6 (human) (UniProt Q9HC98)
# Assay: as above
# Details: compound 0.5 µM; ATP 10 µM
# Chain of NEK6 (human) (Q9HC98 whole entry, looked up): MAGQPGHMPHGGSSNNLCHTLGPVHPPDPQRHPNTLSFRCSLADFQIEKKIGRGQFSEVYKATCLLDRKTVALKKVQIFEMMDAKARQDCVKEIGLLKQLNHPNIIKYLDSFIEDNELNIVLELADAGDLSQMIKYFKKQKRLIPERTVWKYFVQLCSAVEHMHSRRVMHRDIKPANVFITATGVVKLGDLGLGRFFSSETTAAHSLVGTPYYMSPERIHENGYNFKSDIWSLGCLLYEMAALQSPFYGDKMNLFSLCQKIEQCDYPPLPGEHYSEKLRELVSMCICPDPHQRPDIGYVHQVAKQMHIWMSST
row,Compound,residual activity
1,CCCNC(=O)Nc1ccc(Oc2ncnc3cc(OC)c(OC)cc23)cc1Cl,105%
2,Cc1cc2ncc(-c3ccccc3)nc2cc1C,101%
3,Nc1n[nH]c2nnc(-c3c(-c4ccccc4)nn4ccccc34)cc12,95.6%
4,O=c1cc(N2CCNCC2)oc2c(-c3ccccc3)cccc12,105%

# Target: AKT1 (human) (UniProt P31749)
# Assay: as above
# Details: compound 0.5 µM; ATP 10 µM
# Chain of AKT1 (human) (P31749 whole entry, looked up): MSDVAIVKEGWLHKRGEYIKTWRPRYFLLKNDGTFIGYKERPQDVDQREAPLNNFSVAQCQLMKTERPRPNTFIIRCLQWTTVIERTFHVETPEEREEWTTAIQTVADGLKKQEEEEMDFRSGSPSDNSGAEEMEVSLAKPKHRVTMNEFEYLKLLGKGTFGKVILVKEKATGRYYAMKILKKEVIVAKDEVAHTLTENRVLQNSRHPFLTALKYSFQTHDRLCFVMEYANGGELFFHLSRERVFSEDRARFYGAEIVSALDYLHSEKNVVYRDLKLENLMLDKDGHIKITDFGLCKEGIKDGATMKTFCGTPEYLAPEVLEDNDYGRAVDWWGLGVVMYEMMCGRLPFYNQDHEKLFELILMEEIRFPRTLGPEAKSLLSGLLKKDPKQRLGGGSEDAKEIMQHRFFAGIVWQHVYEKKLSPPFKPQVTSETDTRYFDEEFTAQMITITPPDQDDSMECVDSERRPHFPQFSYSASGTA
row,Compound,residual activity
1,CCCNC(=O)Nc1ccc(Oc2ncnc3cc(OC)c(OC)cc23)cc1Cl,93%
2,Cc1cc2ncc(-c3ccccc3)nc2cc1C,101%
3,Nc1n[nH]c2nnc(-c3c(-c4ccccc4)nn4ccccc34)cc12,98%
4,O=c1cc(N2CCNCC2)oc2c(-c3ccccc3)cccc12,103%

# Target: PAK3 (human) (UniProt O75914)
# Assay: as above
# Details: compound 0.5 µM; ATP 10 µM
row,Compound,residual activity
1,CCCNC(=O)Nc1ccc(Oc2ncnc3cc(OC)c(OC)cc23)cc1Cl,94.7%
2,Cc1cc2ncc(-c3ccccc3)nc2cc1C,96.2%
3,Nc1n[nH]c2nnc(-c3c(-c4ccccc4)nn4ccccc34)cc12,100%
4,O=c1cc(N2CCNCC2)oc2c(-c3ccccc3)cccc12,99.8%

# Target: PRKG1 (human) (UniProt Q13976)
# Assay: as above
# Details: compound 0.5 µM; ATP 10 µM
# Chain of PRKG1 (human) (Q13976 whole entry, looked up): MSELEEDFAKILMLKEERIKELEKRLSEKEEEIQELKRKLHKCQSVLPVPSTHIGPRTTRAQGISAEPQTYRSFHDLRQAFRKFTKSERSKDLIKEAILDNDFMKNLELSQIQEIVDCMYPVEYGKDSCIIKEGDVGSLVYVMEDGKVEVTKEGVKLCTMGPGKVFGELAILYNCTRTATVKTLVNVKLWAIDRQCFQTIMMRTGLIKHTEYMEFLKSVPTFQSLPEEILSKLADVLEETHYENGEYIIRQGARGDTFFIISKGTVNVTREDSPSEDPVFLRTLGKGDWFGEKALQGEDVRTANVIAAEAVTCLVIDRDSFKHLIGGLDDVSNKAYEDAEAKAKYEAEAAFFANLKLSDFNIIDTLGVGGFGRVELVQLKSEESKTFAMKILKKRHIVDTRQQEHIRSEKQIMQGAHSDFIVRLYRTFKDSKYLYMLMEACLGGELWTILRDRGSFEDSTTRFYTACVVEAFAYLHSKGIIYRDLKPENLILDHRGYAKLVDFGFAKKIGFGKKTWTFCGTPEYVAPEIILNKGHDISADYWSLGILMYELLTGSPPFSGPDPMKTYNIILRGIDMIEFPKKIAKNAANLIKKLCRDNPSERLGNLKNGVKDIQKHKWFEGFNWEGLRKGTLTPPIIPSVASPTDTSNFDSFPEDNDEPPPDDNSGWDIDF
row,Compound,residual activity
1,CCCNC(=O)Nc1ccc(Oc2ncnc3cc(OC)c(OC)cc23)cc1Cl,76.8% and 95.4%
2,Cc1cc2ncc(-c3ccccc3)nc2cc1C,86.2% and 93.7%
3,Nc1n[nH]c2nnc(-c3c(-c4ccccc4)nn4ccccc34)cc12,89.5% and 93.6%
4,O=c1cc(N2CCNCC2)oc2c(-c3ccccc3)cccc12,100% and 102%

# Target: CSNK1G3 (human) (UniProt Q9Y6M4)
# Assay: as above
# Details: compound 0.5 µM; ATP 10 µM
row,Compound,residual activity
1,CCCNC(=O)Nc1ccc(Oc2ncnc3cc(OC)c(OC)cc23)cc1Cl,105%
2,Cc1cc2ncc(-c3ccccc3)nc2cc1C,99%
3,Nc1n[nH]c2nnc(-c3c(-c4ccccc4)nn4ccccc34)cc12,104%
4,O=c1cc(N2CCNCC2)oc2c(-c3ccccc3)cccc12,102%

# Target: GRK6 (human) (UniProt P43250)
# Assay: as above
# Details: compound 0.5 µM; ATP 10 µM
row,Compound,residual activity
1,CCCNC(=O)Nc1ccc(Oc2ncnc3cc(OC)c(OC)cc23)cc1Cl,95%
2,Cc1cc2ncc(-c3ccccc3)nc2cc1C,103%
3,Nc1n[nH]c2nnc(-c3c(-c4ccccc4)nn4ccccc34)cc12,99.3%
4,O=c1cc(N2CCNCC2)oc2c(-c3ccccc3)cccc12,89.6%

# Target: NTRK2 (human) (UniProt Q16620)
# Assay: as above
# Details: compound 0.5 µM; ATP 10 µM
row,Compound,residual activity
1,CCCNC(=O)Nc1ccc(Oc2ncnc3cc(OC)c(OC)cc23)cc1Cl,102%
2,Cc1cc2ncc(-c3ccccc3)nc2cc1C,103%
3,Nc1n[nH]c2nnc(-c3c(-c4ccccc4)nn4ccccc34)cc12,89.7%
4,O=c1cc(N2CCNCC2)oc2c(-c3ccccc3)cccc12,102%

# Target: PLK1 (human) (UniProt P53350)
# Assay: as above
# Details: compound 0.5 µM; ATP 10 µM
row,Compound,residual activity
1,CCCNC(=O)Nc1ccc(Oc2ncnc3cc(OC)c(OC)cc23)cc1Cl,101%
2,Cc1cc2ncc(-c3ccccc3)nc2cc1C,101%
3,Nc1n[nH]c2nnc(-c3c(-c4ccccc4)nn4ccccc34)cc12,98.1%
4,O=c1cc(N2CCNCC2)oc2c(-c3ccccc3)cccc12,96.6%

# Target: MAPK9 (human) (UniProt P45984)
# Assay: as above
# Details: compound 0.5 µM; ATP 10 µM
row,Compound,residual activity
1,CCCNC(=O)Nc1ccc(Oc2ncnc3cc(OC)c(OC)cc23)cc1Cl,104%
2,Cc1cc2ncc(-c3ccccc3)nc2cc1C,104%
3,Nc1n[nH]c2nnc(-c3c(-c4ccccc4)nn4ccccc34)cc12,48.4%
4,O=c1cc(N2CCNCC2)oc2c(-c3ccccc3)cccc12,90.4%

# Target: IGF1R (human) (UniProt P08069)
# Assay: as above
# Details: compound 0.5 µM; ATP 10 µM
row,Compound,residual activity
1,CCCNC(=O)Nc1ccc(Oc2ncnc3cc(OC)c(OC)cc23)cc1Cl,77%
2,Cc1cc2ncc(-c3ccccc3)nc2cc1C,86.8%
3,Nc1n[nH]c2nnc(-c3c(-c4ccccc4)nn4ccccc34)cc12,102%
4,O=c1cc(N2CCNCC2)oc2c(-c3ccccc3)cccc12,103%

# Target: GSK3A (human) (UniProt P49840)
# Assay: as above
# Details: compound 0.5 µM; ATP 10 µM
row,Compound,residual activity
1,CCCNC(=O)Nc1ccc(Oc2ncnc3cc(OC)c(OC)cc23)cc1Cl,98.8%
2,Cc1cc2ncc(-c3ccccc3)nc2cc1C,104%
3,Nc1n[nH]c2nnc(-c3c(-c4ccccc4)nn4ccccc34)cc12,81.2%
4,O=c1cc(N2CCNCC2)oc2c(-c3ccccc3)cccc12,99.7%

# Target: TSSK1B (human) (UniProt Q9BXA7)
# Assay: as above
# Details: compound 0.5 µM; ATP 10 µM
row,Compound,residual activity
1,CCCNC(=O)Nc1ccc(Oc2ncnc3cc(OC)c(OC)cc23)cc1Cl,80.4%
2,Cc1cc2ncc(-c3ccccc3)nc2cc1C,113%
3,Nc1n[nH]c2nnc(-c3c(-c4ccccc4)nn4ccccc34)cc12,102%
4,O=c1cc(N2CCNCC2)oc2c(-c3ccccc3)cccc12,89.5%

# Target: PAK2 (human) (UniProt Q13177)
# Assay: as above
# Details: compound 0.5 µM; ATP 10 µM
row,Compound,residual activity
1,CCCNC(=O)Nc1ccc(Oc2ncnc3cc(OC)c(OC)cc23)cc1Cl,81.4%
2,Cc1cc2ncc(-c3ccccc3)nc2cc1C,99.3%
3,Nc1n[nH]c2nnc(-c3c(-c4ccccc4)nn4ccccc34)cc12,100%
4,O=c1cc(N2CCNCC2)oc2c(-c3ccccc3)cccc12,99.8%

# Target: SIK2 (human) (UniProt Q9H0K1)
# Assay: as above
# Details: compound 0.5 µM; ATP 10 µM
# Chain of SIK2 (human) (Q9H0K1 whole entry, looked up): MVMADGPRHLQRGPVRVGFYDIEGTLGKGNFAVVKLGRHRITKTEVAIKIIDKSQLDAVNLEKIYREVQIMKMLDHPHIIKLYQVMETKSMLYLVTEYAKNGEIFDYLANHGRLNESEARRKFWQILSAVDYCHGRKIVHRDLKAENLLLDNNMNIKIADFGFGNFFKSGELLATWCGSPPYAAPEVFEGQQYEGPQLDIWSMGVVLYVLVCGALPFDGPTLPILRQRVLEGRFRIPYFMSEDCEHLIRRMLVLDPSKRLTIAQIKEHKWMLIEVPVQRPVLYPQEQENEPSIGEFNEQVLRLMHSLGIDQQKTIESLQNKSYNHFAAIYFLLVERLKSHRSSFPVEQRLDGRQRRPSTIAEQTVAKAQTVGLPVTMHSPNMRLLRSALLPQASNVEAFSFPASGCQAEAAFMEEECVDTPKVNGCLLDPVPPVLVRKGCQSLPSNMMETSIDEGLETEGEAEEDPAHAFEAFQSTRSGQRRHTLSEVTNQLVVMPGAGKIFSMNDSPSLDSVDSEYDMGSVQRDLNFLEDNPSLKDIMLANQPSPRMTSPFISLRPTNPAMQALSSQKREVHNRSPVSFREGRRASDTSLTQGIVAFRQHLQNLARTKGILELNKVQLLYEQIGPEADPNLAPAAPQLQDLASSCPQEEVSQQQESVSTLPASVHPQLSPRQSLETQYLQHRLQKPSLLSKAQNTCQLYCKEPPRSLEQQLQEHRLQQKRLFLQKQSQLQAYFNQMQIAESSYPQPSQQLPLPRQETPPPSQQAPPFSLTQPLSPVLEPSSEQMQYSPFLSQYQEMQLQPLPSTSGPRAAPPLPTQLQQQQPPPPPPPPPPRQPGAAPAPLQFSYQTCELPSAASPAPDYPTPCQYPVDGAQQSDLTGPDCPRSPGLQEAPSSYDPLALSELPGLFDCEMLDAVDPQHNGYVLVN
row,Compound,residual activity
1,CCCNC(=O)Nc1ccc(Oc2ncnc3cc(OC)c(OC)cc23)cc1Cl,101%
2,Cc1cc2ncc(-c3ccccc3)nc2cc1C,87.4%
3,Nc1n[nH]c2nnc(-c3c(-c4ccccc4)nn4ccccc34)cc12,93.6%
4,O=c1cc(N2CCNCC2)oc2c(-c3ccccc3)cccc12,110%

# Target: MST1R (human) (UniProt Q04912)
# Assay: as above
# Details: compound 0.5 µM; ATP 10 µM
row,Compound,residual activity
1,CCCNC(=O)Nc1ccc(Oc2ncnc3cc(OC)c(OC)cc23)cc1Cl,89.3%
2,Cc1cc2ncc(-c3ccccc3)nc2cc1C,99.4%
3,Nc1n[nH]c2nnc(-c3c(-c4ccccc4)nn4ccccc34)cc12,102%
4,O=c1cc(N2CCNCC2)oc2c(-c3ccccc3)cccc12,96%

# Target: CSNK1G1 (human) (UniProt Q9HCP0)
# Assay: as above
# Details: compound 0.5 µM; ATP 10 µM
row,Compound,residual activity
1,CCCNC(=O)Nc1ccc(Oc2ncnc3cc(OC)c(OC)cc23)cc1Cl,97.1%
2,Cc1cc2ncc(-c3ccccc3)nc2cc1C,85.7%
3,Nc1n[nH]c2nnc(-c3c(-c4ccccc4)nn4ccccc34)cc12,109%
4,O=c1cc(N2CCNCC2)oc2c(-c3ccccc3)cccc12,103%

# Target: EPHA1 (human) (UniProt P21709)
# Assay: as above
# Details: compound 0.5 µM; ATP 10 µM
row,Compound,residual activity
1,CCCNC(=O)Nc1ccc(Oc2ncnc3cc(OC)c(OC)cc23)cc1Cl,96.9%
2,Cc1cc2ncc(-c3ccccc3)nc2cc1C,99.9%
3,Nc1n[nH]c2nnc(-c3c(-c4ccccc4)nn4ccccc34)cc12,92.6%
4,O=c1cc(N2CCNCC2)oc2c(-c3ccccc3)cccc12,112%

# Target: KDR (human) (UniProt P35968)
# Assay: as above
# Details: compound 0.5 µM; ATP 10 µM
# Chain of KDR (human) (P35968 whole entry, looked up): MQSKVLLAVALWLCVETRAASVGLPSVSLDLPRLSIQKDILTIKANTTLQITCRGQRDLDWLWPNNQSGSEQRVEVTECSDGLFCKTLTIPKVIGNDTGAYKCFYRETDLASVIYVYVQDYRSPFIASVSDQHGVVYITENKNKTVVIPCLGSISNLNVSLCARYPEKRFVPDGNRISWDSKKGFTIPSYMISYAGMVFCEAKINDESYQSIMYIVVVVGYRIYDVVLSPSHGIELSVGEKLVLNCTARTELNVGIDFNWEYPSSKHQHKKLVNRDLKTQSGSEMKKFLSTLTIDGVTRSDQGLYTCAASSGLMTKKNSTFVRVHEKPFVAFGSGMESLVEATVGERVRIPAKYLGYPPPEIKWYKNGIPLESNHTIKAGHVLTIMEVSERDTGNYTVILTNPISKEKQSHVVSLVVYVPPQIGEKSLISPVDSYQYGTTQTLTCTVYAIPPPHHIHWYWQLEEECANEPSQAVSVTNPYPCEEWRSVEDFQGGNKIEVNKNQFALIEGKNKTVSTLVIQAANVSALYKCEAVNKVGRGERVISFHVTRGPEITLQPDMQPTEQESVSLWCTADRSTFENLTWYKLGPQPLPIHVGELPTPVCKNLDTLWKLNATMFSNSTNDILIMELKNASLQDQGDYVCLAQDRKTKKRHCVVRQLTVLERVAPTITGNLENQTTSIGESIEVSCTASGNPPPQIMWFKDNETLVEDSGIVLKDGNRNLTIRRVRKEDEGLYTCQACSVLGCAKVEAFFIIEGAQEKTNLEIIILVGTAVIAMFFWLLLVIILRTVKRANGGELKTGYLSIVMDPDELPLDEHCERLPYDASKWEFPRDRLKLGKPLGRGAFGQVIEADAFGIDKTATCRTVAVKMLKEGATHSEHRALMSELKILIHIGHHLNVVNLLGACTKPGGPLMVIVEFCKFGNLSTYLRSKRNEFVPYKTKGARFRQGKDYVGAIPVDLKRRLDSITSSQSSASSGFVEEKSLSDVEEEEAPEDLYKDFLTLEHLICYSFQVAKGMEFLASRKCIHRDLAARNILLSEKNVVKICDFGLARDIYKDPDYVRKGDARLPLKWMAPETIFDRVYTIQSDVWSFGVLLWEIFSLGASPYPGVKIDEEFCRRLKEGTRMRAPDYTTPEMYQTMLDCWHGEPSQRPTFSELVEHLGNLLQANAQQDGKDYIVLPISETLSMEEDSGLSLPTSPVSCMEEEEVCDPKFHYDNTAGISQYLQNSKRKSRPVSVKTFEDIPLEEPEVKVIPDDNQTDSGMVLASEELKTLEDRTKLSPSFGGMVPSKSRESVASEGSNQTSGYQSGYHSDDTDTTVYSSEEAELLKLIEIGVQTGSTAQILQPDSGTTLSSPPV
row,Compound,residual activity
1,CCCNC(=O)Nc1ccc(Oc2ncnc3cc(OC)c(OC)cc23)cc1Cl,19.7%
2,Cc1cc2ncc(-c3ccccc3)nc2cc1C,99.1%
3,Nc1n[nH]c2nnc(-c3c(-c4ccccc4)nn4ccccc34)cc12,101%
4,O=c1cc(N2CCNCC2)oc2c(-c3ccccc3)cccc12,99.8%
